What was measured:
[1] = Drug uptake in left ventricle of Sprague-Dawley rat ischemia reperfusion injury model at 74 MBq, iv measured for 60 mins by TTC staining-based micro-SPECT analysis; format: ADME, organism-based, Heart left ventricle; settings: in vivo, 1 h
[2] = Drug uptake in left ventricle of Sprague-Dawley rat left anterior descending occlusion model at 74 MBq, iv measured for 60 mins by TTC staining-based micro-SPECT analysis; format: ADME, organism-based, Heart left ventricle; settings: in vivo, 1 h
[3] = Drug uptake in Sprague-Dawley rat parathyroid at 37 to 111 MBq, iv measured for 60 mins by TTC staining-based micro-SPECT analysis; format: ADME, organism-based, Thyroid gland; settings: in vivo, 1 h
[4] = tested on: Thyroid gland; test: Drug uptake in Sprague-Dawley rat thyroid at 37 to 111 MBq, iv measured for 60 mins by TTC staining-based micro-SPECT analysis; format: ADME, organism-based; settings: in vivo, 1 h
[5] = tested on: Liver; test: Drug uptake in Sprague-Dawley rat liver at 37 to 111 MBq, iv measured for 60 mins by TTC staining-based micro-SPECT analysis; format: ADME, organism-based; settings: in vivo, 1 h
[6] = tested on: Lung; test: Drug uptake in Sprague-Dawley rat lung at 37 to 111 MBq, iv measured for 60 mins by TTC staining-based micro-SPECT analysis; format: ADME, organism-based; settings: in vivo, 1 h
[7] = Drug uptake in Sprague-Dawley rat myocardium at 37 to 111 MBq, iv measured for 60 mins by TTC staining-based micro-SPECT analysis; format: ADME, organism-based; settings: in vivo, 1 h
[8] = Ratio of drug level in heart to blood in Sprague-Dawley rat at 37 to 111 MBq, iv measured at 24 hrs; format: ADME, organism-based
[9] = tested on: Thyroid gland; test: Biodistribution in Sprague-Dawley rat thyroid assessed per organ at 37 to 111 MBq, iv measured at 24 hrs by gamma counting analysis; format: ADME, organism-based; settings: in vivo
[10] = tested on: Thyroid gland; test: Biodistribution in Sprague-Dawley rat thyroid at 37 to 111 MBq, iv measured at 24 hrs by gamma counting analysis; format: ADME, organism-based; settings: in vivo
[11] = tested on: Rattus norvegicus; test: Biodistribution in Sprague-Dawley rat stomach at 37 to 111 MBq, iv measured at 24 hrs by gamma counting analysis; format: ADME, organism-based; settings: in vivo
[12] = tested on: Ovary; test: Biodistribution in Sprague-Dawley rat ovary at 37 to 111 MBq, iv measured at 24 hrs by gamma counting analysis; format: ADME, organism-based, Female gonad; settings: in vivo
[13] = tested on: Rattus norvegicus; test: Biodistribution in Sprague-Dawley rat testis at 37 to 111 MBq, iv measured at 24 hrs by gamma counting analysis; format: ADME, organism-based; settings: in vivo
[14] = tested on: Lung; test: Biodistribution in Sprague-Dawley rat lung at 37 to 111 MBq, iv measured at 24 hrs by gamma counting analysis; format: ADME, organism-based; settings: in vivo
[15] = tested on: Heart; test: Biodistribution in Sprague-Dawley rat heart at 37 to 111 MBq, iv measured at 24 hrs by gamma counting analysis; format: ADME, organism-based; settings: in vivo
[16] = tested on: Kidney; test: Biodistribution in Sprague-Dawley rat kidney at 37 to 111 MBq, iv measured at 24 hrs by gamma counting analysis; format: ADME, organism-based; settings: in vivo
[17] = tested on: Intestine; test: Biodistribution in Sprague-Dawley rat intestine at 37 to 111 MBq, iv measured at 24 hrs by gamma counting analysis; format: ADME, organism-based; settings: in vivo
[18] = tested on: Brain; test: Biodistribution in Sprague-Dawley rat brain at 37 to 111 MBq, iv measured at 24 hrs by gamma counting analysis; format: ADME, organism-based; settings: in vivo
[19] = tested on: Blood; test: Biodistribution in Sprague-Dawley rat blood at 37 to 111 MBq, iv measured at 24 hrs by gamma counting analysis; format: ADME, organism-based; settings: in vivo
[20] = tested on: Spleen; test: Biodistribution in Sprague-Dawley rat spleen at 37 to 111 MBq, iv measured at 24 hrs by gamma counting analysis; format: ADME, organism-based; settings: in vivo
[21] = tested on: Muscle tissue; test: Biodistribution in Sprague-Dawley rat muscle at 37 to 111 MBq, iv measured at 24 hrs by gamma counting analysis; format: ADME, organism-based; settings: in vivo
[22] = tested on: Femur; test: Biodistribution in Sprague-Dawley rat femur at 37 to 111 MBq, iv measured at 24 hrs by gamma counting analysis; format: ADME, organism-based; settings: in vivo
[23] = tested on: Liver; test: Biodistribution in Sprague-Dawley rat liver at 37 to 111 MBq, iv measured at 24 hrs by gamma counting analysis; format: ADME, organism-based; settings: in vivo
[24] = tested on: Rattus norvegicus; test: Biodistribution in Sprague-Dawley rat urinary bladder at 37 to 111 MBq, iv measured at 24 hrs by gamma counting analysis; format: ADME, organism-based; settings: in vivo
[25] = Ratio of drug level in heart to blood in Sprague-Dawley rat at 37 to 111 MBq, iv measured at 2 hrs; format: ADME, organism-based
[26] = tested on: Thyroid gland; test: Biodistribution in Sprague-Dawley rat thyroid assessed per organ at 37 to 111 MBq, iv measured at 2 hrs by gamma counting analysis; format: ADME, organism-based; settings: in vivo
[27] = tested on: Thyroid gland; test: Biodistribution in Sprague-Dawley rat thyroid at 37 to 111 MBq, iv measured at 2 hrs by gamma counting analysis; format: ADME, organism-based; settings: in vivo
[28] = tested on: Rattus norvegicus; test: Biodistribution in Sprague-Dawley rat stomach at 37 to 111 MBq, iv measured at 2 hrs by gamma counting analysis; format: ADME, organism-based; settings: in vivo
[29] = tested on: Ovary; test: Biodistribution in Sprague-Dawley rat ovary at 37 to 111 MBq, iv measured at 2 hrs by gamma counting analysis; format: ADME, organism-based, Female gonad; settings: in vivo
[30] = tested on: Rattus norvegicus; test: Biodistribution in Sprague-Dawley rat testis at 37 to 111 MBq, iv measured at 2 hrs by gamma counting analysis; format: ADME, organism-based; settings: in vivo
[31] = tested on: Lung; test: Biodistribution in Sprague-Dawley rat lung at 37 to 111 MBq, iv measured at 2 hrs by gamma counting analysis; format: ADME, organism-based; settings: in vivo
[32] = tested on: Heart; test: Biodistribution in Sprague-Dawley rat heart at 37 to 111 MBq, iv measured at 2 hrs by gamma counting analysis; format: ADME, organism-based; settings: in vivo
[33] = tested on: Kidney; test: Biodistribution in Sprague-Dawley rat kidney at 37 to 111 MBq, iv measured at 2 hrs by gamma counting analysis; format: ADME, organism-based; settings: in vivo
[34] = tested on: Intestine; test: Biodistribution in Sprague-Dawley rat intestine at 37 to 111 MBq, iv measured at 2 hrs by gamma counting analysis; format: ADME, organism-based; settings: in vivo
[35] = tested on: Brain; test: Biodistribution in Sprague-Dawley rat brain at 37 to 111 MBq, iv measured at 2 hrs by gamma counting analysis; format: ADME, organism-based; settings: in vivo
[36] = tested on: Blood; test: Biodistribution in Sprague-Dawley rat blood at 37 to 111 MBq, iv measured at 2 hrs by gamma counting analysis; format: ADME, organism-based; settings: in vivo
[37] = tested on: Muscle tissue; test: Biodistribution in Sprague-Dawley rat muscle at 37 to 111 MBq, iv measured at 2 hrs by gamma counting analysis; format: ADME, organism-based; settings: in vivo
[38] = tested on: Femur; test: Biodistribution in Sprague-Dawley rat femur at 37 to 111 MBq, iv measured at 2 hrs by gamma counting analysis; format: ADME, organism-based; settings: in vivo
[39] = tested on: Liver; test: Biodistribution in Sprague-Dawley rat liver at 37 to 111 MBq, iv measured at 2 hrs by gamma counting analysis; format: ADME, organism-based; settings: in vivo
[40] = tested on: Rattus norvegicus; test: Biodistribution in Sprague-Dawley rat urinary bladder at 37 to 111 MBq, iv measured at 2 hrs by gamma counting analysis; format: ADME, organism-based; settings: in vivo
[41] = Biodistribution in Sprague-Dawley rat urine at 37 to 111 MBq, iv measured at 2 hrs by gamma counting analysis; format: ADME, organism-based; settings: in vivo
[42] = Biodistribution in Sprague-Dawley rat urine at 37 to 111 MBq, iv measured at 24 hrs by gamma counting analysis; format: ADME, organism-based; settings: in vivo
[43] = tested on: Spleen; test: Biodistribution in Sprague-Dawley rat spleen at 37 to 111 MBq, iv measured at 2 hrs by gamma counting analysis; format: ADME, organism-based; settings: in vivo
[44] = Ratio of drug level in heart to lung in Sprague-Dawley rat at 37 to 111 MBq, iv measured at 2 hrs; settings: in vivo
[45] = Ratio of drug level in heart to lung in Sprague-Dawley rat at 37 to 111 MBq, iv measured at 24 hrs; settings: in vivo
[46] = Ratio of drug level in heart to liver in Sprague-Dawley rat at 37 to 111 MBq, iv measured at 2 hrs; settings: in vivo
[47] = Ratio of drug level in heart to liver in Sprague-Dawley rat at 37 to 111 MBq, iv measured at 24 hrs; settings: in vivo

Question: What does the source list for `COc1cc2c(cc1OC)[C@@H]1C(=O)c3ccc4c(c3O[C@@H]1CO2)C[C@H](C(C)(O)C[123I])O4` (some centres not stated)?
Answer: Drug uptake [1]: Active; Drug uptake [2]: Active; Drug uptake [3]: Active; Drug uptake [4]: Active; Drug uptake [5]: Not Active; Drug uptake [6]: Not Active; Drug uptake [7]: Active; Kp at 24 h [8]: 0.79; Drug uptake [9]: 3.16 %ID; Drug uptake [10]: 13.329 % ID/g; Drug uptake [11]: 2.121 % ID/g; Drug uptake [12]: 0.04 % ID/g; Drug uptake [13]: 0.04 % ID/g; Drug uptake [14]: 0.055 % ID/g; Drug uptake [15]: 0.045 % ID/g; Drug uptake [16]: 0.044 % ID/g; Drug uptake [17]: 0.122 % ID/g; Drug uptake [18]: 0.003 % ID/g; Drug uptake [19]: 0.06 % ID/g; Drug uptake [20]: 0.032 % ID/g; Drug uptake [21]: 0.024 % ID/g; Drug uptake [22]: 0.025 % ID/g; Drug uptake [23]: 0.042 % ID/g; Drug uptake [24]: 0.768 % ID/g; Kp at 2 h [25]: 8.37; Drug uptake [26]: 0.334 %ID; Drug uptake [27]: 1.368 % ID/g; Drug uptake [28]: 3.263 % ID/g; Drug uptake [29]: 0.22 % ID/g; Drug uptake [30]: 0.22 % ID/g; Drug uptake [31]: 0.502 % ID/g; Drug uptake [32]: 2.01 % ID/g; Drug uptake [33]: 0.7 % ID/g; Drug uptake [34]: 0.846 % ID/g; Drug uptake [35]: 0.098 % ID/g; Drug uptake [36]: 0.257 % ID/g; Drug uptake [37]: 0.357 % ID/g; Drug uptake [38]: 0.242 % ID/g; Drug uptake [39]: 0.709 % ID/g; Drug uptake [40]: 0.918 % ID/g; Drug uptake [41]: 0.918 % ID/g; Drug uptake [42]: 0.768 % ID/g; Drug uptake [43]: 0.234 % ID/g; Ratio [44]: 4.11; Ratio [45]: 0.85; Ratio [46]: 2.98; Ratio [47]: 1.08
